Test: water solubility of PDC and PDC complex salts (FIG. 2)
Format: physicochemical
Conditions: in water; free compound
Source text: Hereinafter, a complex salt formed centering on the Carbonyl group of PDC may be referred to as “a PDC complex salt,” in order to distinguish from a complex salt described in the section of salts of cations. The structure of a […] complex salt is described in many references (for example, Acta. Cryst. (1992) C48, 460-465).

## O=C(O)c1cc(C(=O)O)oc(=O)c1 [free PDC, 2-pyrone-4,6-dicarboxylic acid]
  water solubility: 182 mM
